# Columns and labels:
# [1] = molecular target: Histone deacetylase 1 (Homo sapiens, UniProt Q13547); experiment: Inhibition of HDAC1 (unknown origin)
# [2] = Toxicity in BALB/c nude mouse xenografted with human HCT-116 cells assessed as reduction in body weight at 15 to 30 mg/kg/day, po administered for 18 days and measured every 3 days; format: organism-based; conditions: in vivo, 432 h, dose 15-30 mg/kg/day, time 18 day
# [3] = Tmax in Sprague-Dawley rat at 2 mg/kg, iv measured for 24 hrs by LC-MS/MS-18 analysis; format: ADME, organism-based; conditions: in vivo
# [4] = Half life in Sprague-Dawley rat at 5 mg/kg, ip measured for 24 hrs by LC-MS/MS-18 analysis; format: ADME, organism-based; conditions: in vivo
# [5] = molecular target: T1, Histone deacetylase 8 (Homo sapiens, UniProt Q9BY41); experiment: Inhibition of HDAC8 (unknown origin)
# T1 sequence (Q9BY41 whole entry): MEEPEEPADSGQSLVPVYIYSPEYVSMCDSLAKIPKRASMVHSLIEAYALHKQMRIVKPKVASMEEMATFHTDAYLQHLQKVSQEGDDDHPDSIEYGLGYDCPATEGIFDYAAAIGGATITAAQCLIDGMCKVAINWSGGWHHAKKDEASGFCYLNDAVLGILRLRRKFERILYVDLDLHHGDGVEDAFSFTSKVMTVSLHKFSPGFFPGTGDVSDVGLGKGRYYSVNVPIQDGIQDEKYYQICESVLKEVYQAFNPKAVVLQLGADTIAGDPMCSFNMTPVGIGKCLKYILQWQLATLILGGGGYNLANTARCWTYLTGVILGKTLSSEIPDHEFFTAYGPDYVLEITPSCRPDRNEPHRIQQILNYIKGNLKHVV
# [6] = molecular target: Fibroblast growth factor receptor 2 (Homo sapiens, UniProt P21802); experiment: Inhibition of FGFR2 (unknown origin)
# Sequence of Fibroblast growth factor receptor 2 (P21802 whole entry): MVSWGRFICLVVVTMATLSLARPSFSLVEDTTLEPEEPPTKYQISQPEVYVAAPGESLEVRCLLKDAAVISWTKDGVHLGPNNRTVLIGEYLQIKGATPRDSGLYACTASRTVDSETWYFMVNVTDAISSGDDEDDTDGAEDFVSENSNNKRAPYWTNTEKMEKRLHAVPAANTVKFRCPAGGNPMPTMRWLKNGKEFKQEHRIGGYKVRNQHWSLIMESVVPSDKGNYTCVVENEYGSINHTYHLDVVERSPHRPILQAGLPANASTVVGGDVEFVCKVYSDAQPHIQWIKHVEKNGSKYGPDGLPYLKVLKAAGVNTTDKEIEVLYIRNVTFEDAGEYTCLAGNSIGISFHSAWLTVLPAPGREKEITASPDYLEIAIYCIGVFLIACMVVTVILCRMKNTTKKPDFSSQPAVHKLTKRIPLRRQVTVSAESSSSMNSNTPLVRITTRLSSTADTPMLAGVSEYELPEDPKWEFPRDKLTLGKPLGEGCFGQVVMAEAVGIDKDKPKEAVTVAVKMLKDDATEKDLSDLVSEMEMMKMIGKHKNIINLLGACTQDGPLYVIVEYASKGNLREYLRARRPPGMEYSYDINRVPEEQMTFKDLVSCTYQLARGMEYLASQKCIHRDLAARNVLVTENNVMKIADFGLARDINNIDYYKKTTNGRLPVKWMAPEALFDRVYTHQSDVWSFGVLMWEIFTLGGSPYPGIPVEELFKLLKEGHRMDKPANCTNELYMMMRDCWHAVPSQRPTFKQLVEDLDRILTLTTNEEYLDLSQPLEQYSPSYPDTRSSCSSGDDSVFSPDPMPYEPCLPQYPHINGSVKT
# [7] = molecular target: Fibroblast growth factor receptor 4 (Homo sapiens, UniProt P22455); experiment: Inhibition of FGFR4 (unknown origin)
# Sequence of Fibroblast growth factor receptor 4 (P22455 whole entry): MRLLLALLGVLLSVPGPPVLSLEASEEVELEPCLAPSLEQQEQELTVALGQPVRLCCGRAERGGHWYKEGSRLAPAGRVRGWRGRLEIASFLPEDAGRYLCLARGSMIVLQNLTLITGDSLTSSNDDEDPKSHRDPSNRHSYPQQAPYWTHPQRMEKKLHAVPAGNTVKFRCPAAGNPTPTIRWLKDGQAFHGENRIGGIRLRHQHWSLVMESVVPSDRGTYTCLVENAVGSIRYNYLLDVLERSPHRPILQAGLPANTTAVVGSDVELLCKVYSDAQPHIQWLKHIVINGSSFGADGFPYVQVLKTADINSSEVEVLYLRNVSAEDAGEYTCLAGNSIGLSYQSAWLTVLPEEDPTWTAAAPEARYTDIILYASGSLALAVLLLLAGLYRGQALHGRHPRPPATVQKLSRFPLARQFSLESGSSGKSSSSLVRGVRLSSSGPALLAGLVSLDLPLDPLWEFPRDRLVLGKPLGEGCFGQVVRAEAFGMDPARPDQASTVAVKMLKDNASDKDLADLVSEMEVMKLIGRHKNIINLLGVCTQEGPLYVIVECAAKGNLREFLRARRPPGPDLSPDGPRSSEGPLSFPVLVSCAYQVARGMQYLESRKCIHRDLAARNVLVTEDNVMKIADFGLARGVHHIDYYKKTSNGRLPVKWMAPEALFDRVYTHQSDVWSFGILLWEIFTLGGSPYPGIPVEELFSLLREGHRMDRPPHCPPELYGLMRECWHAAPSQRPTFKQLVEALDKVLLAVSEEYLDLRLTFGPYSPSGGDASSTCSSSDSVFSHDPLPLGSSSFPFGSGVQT
# [8] = Volume of distribution at steady state in Sprague-Dawley rat at 2 mg/kg, iv measured for 24 hrs by LC-MS/MS-18 analysis; format: ADME, organism-based; conditions: in vivo, read-out: Vdss
# [9] = AUC (0 to infinity) in Sprague-Dawley rat at 2 mg/kg, iv measured for 24 hrs by LC-MS/MS-18 analysis; format: ADME, organism-based; parameters: time 24 hrs, dose 2 mg/kg, route iv; conditions: in vivo
# [10] = Oral bioavailability in Sprague-Dawley rat at 5 mg/kg measured for 24 hrs by LC-MS/MS-18 analysis; format: ADME, organism-based; conditions: in vivo, route ip
# [11] = Tmax in Sprague-Dawley rat at 30 mg/kg, po measured for 24 hrs by LC-MS/MS-18 analysis; format: ADME, organism-based; conditions: in vivo
# [12] = AUC (0 to infinity) in Sprague-Dawley rat at 30 mg/kg, po measured for 24 hrs by LC-MS/MS-18 analysis; format: ADME, organism-based; parameters: dose 30 mg/kg, time 24 hrs, route po; conditions: in vivo
# [13] = Tmax in Sprague-Dawley rat at 5 mg/kg, ip measured for 24 hrs by LC-MS/MS-18 analysis; format: ADME, organism-based; conditions: in vivo
# [14] = molecular target: Fibroblast growth factor receptor 3 (Homo sapiens, UniProt P22607); experiment: Inhibition of FGFR3 (unknown origin)
# Sequence of Fibroblast growth factor receptor 3 (P22607 whole entry): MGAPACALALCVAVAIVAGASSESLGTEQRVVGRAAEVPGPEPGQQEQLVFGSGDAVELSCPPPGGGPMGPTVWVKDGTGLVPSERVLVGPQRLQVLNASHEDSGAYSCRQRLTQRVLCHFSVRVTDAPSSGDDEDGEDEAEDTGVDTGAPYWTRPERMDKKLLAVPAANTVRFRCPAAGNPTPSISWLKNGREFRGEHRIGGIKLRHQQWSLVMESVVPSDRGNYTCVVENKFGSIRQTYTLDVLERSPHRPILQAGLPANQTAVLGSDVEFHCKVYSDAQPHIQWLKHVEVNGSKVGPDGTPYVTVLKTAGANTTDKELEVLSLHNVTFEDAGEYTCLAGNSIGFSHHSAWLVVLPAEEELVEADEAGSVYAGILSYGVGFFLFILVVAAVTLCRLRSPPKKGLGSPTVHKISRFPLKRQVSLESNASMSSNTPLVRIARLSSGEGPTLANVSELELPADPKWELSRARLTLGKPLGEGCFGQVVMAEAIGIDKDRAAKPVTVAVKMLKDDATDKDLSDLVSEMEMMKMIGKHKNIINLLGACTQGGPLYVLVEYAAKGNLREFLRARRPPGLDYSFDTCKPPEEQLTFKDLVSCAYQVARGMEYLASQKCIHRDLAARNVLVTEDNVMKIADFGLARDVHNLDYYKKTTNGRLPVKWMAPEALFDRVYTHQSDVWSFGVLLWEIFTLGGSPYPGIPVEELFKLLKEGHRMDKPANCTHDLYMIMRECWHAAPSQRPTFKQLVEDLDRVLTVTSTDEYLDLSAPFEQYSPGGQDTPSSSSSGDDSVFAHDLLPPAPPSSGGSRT
# [15] = AUC (0 to infinity) in Sprague-Dawley rat at 5 mg/kg, ip measured for 24 hrs by LC-MS/MS-18 analysis; format: ADME, organism-based; parameters: time 24 hrs, dose 5 mg/kg, route ip; conditions: in vivo
# [16] = Cmax in Sprague-Dawley rat at 2 mg/kg, iv measured for 24 hrs by LC-MS/MS-18 analysis; format: ADME, organism-based; parameters: time 24 hrs, dose 2 mg/kg, route iv; conditions: in vivo
# [17] = Half life in Sprague-Dawley rat at 2 mg/kg, iv measured for 24 hrs by LC-MS/MS-18 analysis; format: ADME, organism-based; conditions: in vivo
# [18] = molecular target: T2, Protein deacetylase HDAC6 (Homo sapiens, UniProt Q9UBN7); experiment: Inhibition of HDAC6 (unknown origin)
# T2 sequence (Q9UBN7 whole entry): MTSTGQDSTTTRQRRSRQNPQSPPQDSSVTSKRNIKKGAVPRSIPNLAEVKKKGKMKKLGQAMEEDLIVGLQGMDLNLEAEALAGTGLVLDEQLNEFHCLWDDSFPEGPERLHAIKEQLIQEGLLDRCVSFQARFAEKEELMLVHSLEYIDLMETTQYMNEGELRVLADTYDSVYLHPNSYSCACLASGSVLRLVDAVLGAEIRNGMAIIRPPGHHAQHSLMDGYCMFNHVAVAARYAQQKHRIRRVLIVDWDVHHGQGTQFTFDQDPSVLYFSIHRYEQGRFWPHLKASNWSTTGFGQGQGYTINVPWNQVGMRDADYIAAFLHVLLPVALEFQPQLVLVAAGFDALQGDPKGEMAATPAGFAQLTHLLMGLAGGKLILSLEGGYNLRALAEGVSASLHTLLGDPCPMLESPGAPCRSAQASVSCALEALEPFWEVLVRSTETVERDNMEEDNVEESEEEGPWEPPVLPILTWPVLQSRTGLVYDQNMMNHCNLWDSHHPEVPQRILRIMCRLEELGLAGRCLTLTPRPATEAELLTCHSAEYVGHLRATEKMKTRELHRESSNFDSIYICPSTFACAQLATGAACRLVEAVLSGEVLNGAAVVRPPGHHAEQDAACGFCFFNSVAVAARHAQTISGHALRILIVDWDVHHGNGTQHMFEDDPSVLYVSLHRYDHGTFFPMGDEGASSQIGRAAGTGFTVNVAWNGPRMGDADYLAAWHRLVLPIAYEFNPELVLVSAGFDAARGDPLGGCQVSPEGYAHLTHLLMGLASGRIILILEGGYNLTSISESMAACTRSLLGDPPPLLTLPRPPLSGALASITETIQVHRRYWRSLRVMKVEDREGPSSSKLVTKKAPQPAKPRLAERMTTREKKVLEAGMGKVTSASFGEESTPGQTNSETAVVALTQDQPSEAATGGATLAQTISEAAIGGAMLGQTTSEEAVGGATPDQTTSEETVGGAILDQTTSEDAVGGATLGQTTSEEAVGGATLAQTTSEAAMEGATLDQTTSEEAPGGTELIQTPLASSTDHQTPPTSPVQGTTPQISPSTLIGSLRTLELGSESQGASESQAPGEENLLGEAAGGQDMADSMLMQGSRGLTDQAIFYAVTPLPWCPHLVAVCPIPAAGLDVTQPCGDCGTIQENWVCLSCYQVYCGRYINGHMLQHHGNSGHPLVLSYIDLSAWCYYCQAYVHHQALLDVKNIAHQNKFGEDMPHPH
# [19] = molecular target: Histone deacetylase 2 (Homo sapiens, UniProt Q92769); experiment: Inhibition of HDAC2 (unknown origin)
# Sequence of Histone deacetylase 2 (Q92769 whole entry): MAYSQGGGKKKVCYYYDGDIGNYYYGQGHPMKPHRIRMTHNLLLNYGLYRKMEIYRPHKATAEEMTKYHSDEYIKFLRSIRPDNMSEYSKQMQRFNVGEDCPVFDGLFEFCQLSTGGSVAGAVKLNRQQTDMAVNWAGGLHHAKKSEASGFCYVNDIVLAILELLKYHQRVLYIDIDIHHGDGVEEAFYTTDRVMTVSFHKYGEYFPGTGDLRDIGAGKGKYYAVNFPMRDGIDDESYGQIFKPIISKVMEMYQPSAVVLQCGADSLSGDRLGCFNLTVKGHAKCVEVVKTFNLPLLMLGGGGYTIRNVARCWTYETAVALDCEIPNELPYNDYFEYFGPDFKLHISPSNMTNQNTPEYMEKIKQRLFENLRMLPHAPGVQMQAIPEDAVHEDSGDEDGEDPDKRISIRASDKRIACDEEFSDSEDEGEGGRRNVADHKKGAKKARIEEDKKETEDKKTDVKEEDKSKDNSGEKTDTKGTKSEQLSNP
# [20] = Clearance in Sprague-Dawley rat at 2 mg/kg, iv measured for 24 hrs by LC-MS/MS-18 analysis; format: ADME, organism-based; conditions: in vivo
# [21] = Cmax in Sprague-Dawley rat at 5 mg/kg, ip measured for 24 hrs by LC-MS/MS-18 analysis; format: ADME, organism-based; parameters: time 24 hrs, dose 5 mg/kg, route ip; conditions: in vivo
# [22] = Toxicity in BALB/c nude mouse xenografted with human SNU-16 cells assessed as reduction in body weight at 15 to 30 mg/kg/day, ip administered for 18 days and measured every 3 days; format: organism-based; conditions: in vivo, 432 h, dose 15-30 mg/kg/day, time 18 day
# [23] = Oral bioavailability in Sprague-Dawley rat at 30 mg/kg measured for 24 hrs by LC-MS/MS-18 analysis; format: ADME, organism-based; conditions: in vivo
# [24] = Cmax in Sprague-Dawley rat at 30 mg/kg, po measured for 24 hrs by LC-MS/MS-18 analysis; format: ADME, organism-based; parameters: dose 30 mg/kg, time 24 hrs, route po; conditions: in vivo
# [25] = Half life in Sprague-Dawley rat at 30 mg/kg, po measured for 24 hrs by LC-MS/MS-18 analysis; format: ADME, organism-based; conditions: in vivo
# Sequence of Histone deacetylase 1 (Q13547 whole entry): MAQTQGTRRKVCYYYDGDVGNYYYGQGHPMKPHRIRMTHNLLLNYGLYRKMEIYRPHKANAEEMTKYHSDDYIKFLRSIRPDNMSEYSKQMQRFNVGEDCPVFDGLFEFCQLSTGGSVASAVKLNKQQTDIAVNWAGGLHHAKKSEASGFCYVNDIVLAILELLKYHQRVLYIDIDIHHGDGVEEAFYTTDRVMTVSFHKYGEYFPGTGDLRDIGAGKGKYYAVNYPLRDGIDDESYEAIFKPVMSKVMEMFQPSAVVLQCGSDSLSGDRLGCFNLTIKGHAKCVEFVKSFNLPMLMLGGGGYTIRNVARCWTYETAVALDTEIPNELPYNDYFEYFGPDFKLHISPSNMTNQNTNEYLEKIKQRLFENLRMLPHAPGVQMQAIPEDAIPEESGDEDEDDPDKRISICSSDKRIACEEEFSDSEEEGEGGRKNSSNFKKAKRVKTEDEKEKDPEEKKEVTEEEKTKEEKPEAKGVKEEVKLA
compound,measurement,setting,value
COc1cc(OC)cc(N(CCNC(C)C)c2ccc3ncc(-c4cnn(CCCCCCC(=O)NO)c4)nc3c2)c1,IC50,[1],1.3 nM
same,Activity,[2],Non-Toxic
same,Tmax,[3],4.8 min
same,half-life,[4],1.83 h
same,IC50,[5],13 nM
same,IC50,[6],1.2 nM
same,IC50,[7],1.4 nM
same,Vd,[8],2.79 L/kg
same,AUC(0-inf),[9],425 ng·h/mL
same,bioavailability,[10],43.8%
same,Tmax,[11],4 h
same,AUC(0-inf),[12],1560 ng·h/mL
same,Tmax,[13],2 h
same,IC50,[14],0.46 nM
same,AUC(0-inf),[15],491 ng·h/mL
same,Cmax,[16],1120 ng/mL
same,half-life,[17],0.98 h
same,IC50,[18],2.6 nM
same,IC50,[19],1.6 nM
same,clearance,[20],80.6 mL/min/kg
same,Cmax,[21],102 ng/mL
same,Activity,[22],Non-Toxic
same,bioavailability,[23],24.8%
same,Cmax,[24],443 ng/mL
same,half-life,[25],0.77 h
